Values quoted from earlier work as cited in patent US20230320382A1 (DSM IP Assets B.V., priority 2018, published 2023).

[1] = added to the diet of growing pigs

**Q.** For O=C(O)c1ccccc1 [Benzoic acid], which “Effect on blood pH” value [1] is on record?
**A.** only slightly reduces

**Q.** What about the “Effect on urine pH” value [1] of the same molecule?
**A.** markedly acidifies

**Q.** And the Site of absorption (ingested benzoic acid)?
**A.** absorbed in the first tract of the small intestine
